pKd: −log10 of the molar value.
Key:
[1] = target: T1, PHD domain of UHRF1 (UHRF1PHD) (Homo sapiens, UniProt Q96T88); assay: ITC binding of H3 peptides to UHRF1PHD; conditions: 25 °C, 19 injections of peptide into protein, dz peptides carry pre‐installed biotin, done two times
T1 construct: the PHD domain of UHRF1 (UHRF1PHD)
T1 sequence (Q96T88 310-366 limits assumed): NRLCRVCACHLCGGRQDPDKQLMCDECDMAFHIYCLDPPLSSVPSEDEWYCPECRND
Experimental: Experiments were performed at 25 °C on a MicroCal PEAQ‐ITC automated (Malvern Instruments). Protein was loaded in the cell was titrated with 19 injections of peptides. The binding isotherm was fit with MicroCal PEAQ‐ITC Analysis software. The assay was done two times to confirm results.

[2] = target: T2, PWWP domain of MSH6 (MSH6PWWP) (Homo sapiens, UniProt P52701); assay: ITC binding of H3R2me2a to MSH6PWWP; conditions: 25 °C
T2 construct: His‐MSH6PWWP (residues 87–198) domain in pET28‐MHL vector; His (N); made in house; host or cells: Escherichia coli BL21 (DE3)
Experimental: His‐MSH6PWWP (residues 87–198) domain in pET28‐MHL vector. His‐ MSH6PWWP were expressed in Escherichia coli strain BL21 (DE3) (Novagen) with 0.5 mM IPTG induction at 16 °C in LB medium. After cell lysis by French Press Cell Disrupter (Thermo) and centrifugation, the supernatant was applied to a HisTrap (GE Healthcare) nickel column, and the bound protein was eluted with a linear imidazole gradient from 20 to 500 mM. And further purified by a HiLoad 16/60 Superdex 75 (GE Healthcare) gel filtration column. The pure protein were pooled and dialyzed in buffer (100 mM NaCl, 20 mM Tris, pH 7.5) with Slide‐A‐Lyzer (10000 MWCO). At last, the dialyzed protein were concentrated with to 5 mg mL^−1 and stored in −80 °C freezer for future use. Experiments were performed at 25 °C on a MicroCal PEAQ‐ITC automated (Malvern Instruments). Protein was loaded in the cell was titrated with 19 injections of peptides. The binding isotherm was fit with MicroCal PEAQ‐ITC Analysis software. The assay was done two times to confirm results.

RBBP4 = target: T3, RBBP4 (Homo sapiens, UniProt Q09028); assay: ITC binding of native H3 peptides to RBBP4; conditions: H3R2me2a versus H3R2, from ITC Kd
T3 construct: DNA fragment encoding RBBP4/7 (1‐ 425) was cloned into pFBOH‐LIC donor plasmid; His (inferred from Ni-NTA purification; vector pFBOH-LIC); made in house; host or cells: sf9 insect cells (baculovirus)
Experimental: (§1) DNA fragment encoding RBBP4/7 (1‐ 425) was cloned into pFBOH‐LIC donor plasmid. The resulting plasmid was transformed into DH10Bac Competent E. coli cells (Invitrogen) and a recombinant Bacmid DNA was purified and followed by a recombinant baculovirus generation in sf9 insect cells. sf9 cells grown in HyQ SFX insect serum‐free medium (Thermo Scientific) were infected with 10 mL of P3 viral stocks per 1 L of suspension cell culture and incubated at 27 °C using a platform shaker set at 150 rpm. The cells were harvested by centrifugation (4000 rpm for 10 min at 4 °C) after 72 h of post‐infection time when viability dropped to 70–80%. […] Fractions were assessed by SDS‐PAGE electrophoresis and those containing pure protein were pooled, concentrated, and flash‐frozen for storage at −80 °C. […]

RBBP7 = target: T4, RBBP7 (Homo sapiens, UniProt Q16576); assay: ITC binding of native H3 peptides to RBBP7; conditions: H3R2me2a versus H3R2, from ITC Kd
T4 construct: DNA fragment encoding RBBP4/7 (1‐ 425) was cloned into pFBOH‐LIC donor plasmid; His (inferred from Ni-NTA purification; vector pFBOH-LIC); made in house; host or cells: sf9 insect cells (baculovirus)
Experimental: as §1

[3] = target: T5, tandem PHD domain of DPF2 (DPF2PHD) (Homo sapiens, UniProt Q92785); assay: ITC binding of native H3 peptides to DPF2PHD; conditions: 25 °C, native H3_1‐15 peptides without diazirine and biotin, n = 2, representative data
T5 construct: His‐DPF2PHD (residues 270–391) domain in pET28‐MHL vector; His (N); made in house; host or cells: Escherichia coli BL21 (DE3)
T5 sequence (Q92785 270-391): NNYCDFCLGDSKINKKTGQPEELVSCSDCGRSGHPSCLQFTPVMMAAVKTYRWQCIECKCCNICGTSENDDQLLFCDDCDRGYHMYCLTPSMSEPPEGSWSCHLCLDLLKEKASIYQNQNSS

T4 sequence (Q16576 whole entry, the tested form may be a part): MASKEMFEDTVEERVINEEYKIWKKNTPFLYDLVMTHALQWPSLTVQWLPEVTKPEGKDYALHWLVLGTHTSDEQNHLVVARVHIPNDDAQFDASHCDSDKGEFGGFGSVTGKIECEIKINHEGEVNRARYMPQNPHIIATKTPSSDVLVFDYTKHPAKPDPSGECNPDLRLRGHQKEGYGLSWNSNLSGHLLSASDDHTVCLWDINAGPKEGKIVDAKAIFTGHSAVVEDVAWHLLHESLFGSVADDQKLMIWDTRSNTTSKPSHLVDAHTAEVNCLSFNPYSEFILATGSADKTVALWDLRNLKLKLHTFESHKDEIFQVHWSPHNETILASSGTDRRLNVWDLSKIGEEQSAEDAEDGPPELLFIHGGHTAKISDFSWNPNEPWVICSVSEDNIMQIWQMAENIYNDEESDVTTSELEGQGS
T3 sequence (Q09028 whole entry, the tested form may be a part): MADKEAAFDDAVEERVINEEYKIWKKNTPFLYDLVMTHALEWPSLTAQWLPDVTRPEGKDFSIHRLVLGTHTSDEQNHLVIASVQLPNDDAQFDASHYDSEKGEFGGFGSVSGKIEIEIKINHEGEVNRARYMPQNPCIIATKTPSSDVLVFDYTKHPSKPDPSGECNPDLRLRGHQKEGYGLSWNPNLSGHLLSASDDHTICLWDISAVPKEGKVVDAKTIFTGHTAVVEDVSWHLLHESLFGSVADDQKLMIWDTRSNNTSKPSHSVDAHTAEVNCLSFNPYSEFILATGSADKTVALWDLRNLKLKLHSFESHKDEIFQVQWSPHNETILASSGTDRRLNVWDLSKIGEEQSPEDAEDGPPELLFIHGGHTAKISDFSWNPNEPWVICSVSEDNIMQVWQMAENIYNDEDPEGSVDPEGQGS
T2 sequence (P52701 87-198): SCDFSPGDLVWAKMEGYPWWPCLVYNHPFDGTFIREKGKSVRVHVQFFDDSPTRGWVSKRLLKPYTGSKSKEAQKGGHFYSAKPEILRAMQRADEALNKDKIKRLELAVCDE

| Structure (SMILES) | pKd [1] | interaction with MSH6PWWP via ITC [2] | decrease in binding affinity by asymmetric methylation (RBBP4) (RBBP4) | decrease in binding affinity by asymmetric methylation (RBBP7) (RBBP7) | Kd (DPF2PHD) [3] |
| --- | --- | --- | --- | --- | --- |
| C[C@H](N)C(=O)N[C@@H](CC1(CNC(=N)N)N=N1)C(=O)N[C@H](C(=O)N[C@@H](CCCCN)C(=O)N[C@@H](CCC(N)=O)C(=O)N[C@H](C(=O)N[C@@H](C)C(=O)N[C@@H](CCCNC(=N)N)C(=O)N[C@@H](CCCCN)C(=O)N[C@@H](CO)C(=O)N[C@H](C(=O)NCC(=O)NCC(=O)N[C@@H](CCCCNC(=O)CCCC[C@@H]1SC[C@@H]2NC(=O)N[C@@H]21)C(=O)N[C@@H](C)C(N)=O)[C@@H](C)O)[C@@H](C)O)[C@@H](C)O [H3R2‐dz] | 4.97 | – | – | – | – |
| C[C@H](N)C(=O)N[C@@H](CCCNC(=N)N(C)C)C(=O)N[C@H](C(=O)N[C@@H](CCC1(CN)N=N1)C(=O)N[C@@H](CCC(N)=O)C(=O)N[C@H](C(=O)N[C@@H](C)C(=O)N[C@@H](CCCNC(=N)N)C(=O)N[C@@H](CCCCN)C(=O)N[C@@H](CO)C(=O)N[C@H](C(=O)NCC(=O)NCC(=O)N[C@@H](CCCCNC(=O)CCCC[C@@H]1SC[C@@H]2NC(=O)N[C@@H]21)C(=O)N[C@@H](C)C(N)=O)[C@@H](C)O)[C@@H](C)O)[C@@H](C)O [H3R2me2a] | – | undetectable | three–fourfold decrease | three–fourfold decrease | no binding affinity detected |
| C[C@H](N)C(=O)N[C@@H](CCCNC(=N)N)C(=O)N[C@H](C(=O)N[C@@H](CCC1(CN)N=N1)C(=O)N[C@@H](CCC(N)=O)C(=O)N[C@H](C(=O)N[C@@H](C)C(=O)N[C@@H](CCCNC(=N)N)C(=O)N[C@@H](CCCCN)C(=O)N[C@@H](CO)C(=O)N[C@H](C(=O)NCC(=O)NCC(=O)N[C@@H](CCCCNC(=O)CCCC[C@@H]1SC[C@@H]2NC(=O)N[C@@H]21)C(=O)N[C@@H](C)C(N)=O)[C@@H](C)O)[C@@H](C)O)[C@@H](C)O [H3K4‐dz] | 5.19 | – | – | – | – |

From article PMC11005723, “Development of Complementary Photo‐arginine/lysine to Promote Discovery of Arg/Lys hPTMs Interactomes” (Advanced Science, 2024)
